One may read the IC50 as the point on the concentration scale where inhibition reaches its midpoint. By pIC50 is commonly meant the IC50 on a negative log10 scale, so that one unit is a factor of ten. Read a low pIC50 as a large IC50.

The record followed here is patent US6369066B1, “Substituted 1,3-oxathiolanes with antiviral properties” (BioChem Pharma, Inc., priority 1990, dated 2002).

Holding throughout (type): cell-based
For one data set, the system named is HIV-1 strain RF. In words: Formazan (MTT) assay on MT-4 cells, anti-HIV-1 antiviral activity. To be noted: Human immunodeficiency virus 1, MT4, 168 h, MT-4 cells infected with HIV-1 strain RF, 7 days, read-out: IC50 (50% anti-viral dose, ID 50%). On the procedure:
Formazan Assay on MT-4 and 3TC™-Resistant Cell Lines
Anti-HIV-1 antiviral activity was determined in MT-4 calls and MT-4 cells that have been made resistant to 3TC™. A suspension of cells (approximately 10^6 cells/ml) in RPMI 1640 growth medium was infected with HIV-1 strain RF at a M.O.I. of 10^−3 infectious units/cell. An uninfected cell suspension was prepared in parallel to evaluate drug-induced cytotoxicity. The two suspensions were incubated for 90 minutes at room temperature. Test compounds were serially diluted in 10-fold decrements from 100 μg/ml to 0.01 μg/ml (final concentrations in two 96 well microtitre plates. 20 μl of infected cell suspension were inoculated into each well of one of the plates (anti-viral), while 20 μl of uninfected cell suspension were added to each well of the second plate (cytotoxicity). The plates were then incubated for 7 days at 37° C. After incubation, 10 μl of 3-(4,5-dimethylthiazol-2-yl)-2,5-diphenyltetrazolium bromide (MTT) at 20 mg/ml was added to all wells and the plates incubated for a further 90 minutes at 37° C.
150 μl of 10% (v/v) alcoholic Triton X-100 was then added and the cells resuspended. After 15 minutes at room temperature, the plates were analyzed in a Multiskan MC reader at 405 nm. Conversion of yellow MMT to its formazan derivative is maximum in uninfected cells, and absent in untreated infected cells. The optical density values for the cytotoxicity controls and the antiviral test wells were graphically plotted and the dose of compounds required to inhibit the conversion of MMT to 50% of the untreated uninfected controls was calculated. In this way, both the 50% cytotoxic dose (CD 50%) and the 50% anti-viral dose (ID 50%) can be calculated.

Another data set concerns C8166 cells. In words: Cytotoxicity (CD50) reported with syncytium formation assay. To be noted: syncytium formation table.
In a further data set the test system is HIV-1 IIIB. In words: IC50 in CBMCs with HIV-1 isolate IIIB. To be noted: Human immunodeficiency virus 1. On the procedure:
In short, viruses (HTLV-IIIB) that had initially been grown on MT-4 cells were passaged onto phytohemaglutinin-prestimulated cord blood mononuclear cells (CBM). For subsequent analysis, samples of CBM (5×10^5 cells per mL) were pretreated with various concentrations of the different compounds for 4 h and were then inoculated with CBL-grown HIV-1 at a multiplicity of infection of 1.0 in the concentration of the compound used for the pretreatment. Fresh medium, including the appropriate concentration of the compound was added three times weekly, and fresh phytohemaglutinin-prestimulated CBM (5×10^5 cells per mL) were added at 2-day intervals. The calculation of IC50 was determined on the basis of RT levels in culture fluids as described in Gao et al., (1992), J. Virol. 66: 12-19.
Determination of IC50 (μM) in Different Mutated Isolates of HIV-1 in the Presence of Different Antiviral Compounds
The procedure is similar to the procedure used in the CBM assay, with the exception that constructed virus and construted mutated virus were used.

The next data set has as its system HTLV-IIIb. In words: HIV-1 acutely infected cell lines, p24 antigen levels. The following applies: p24 antigen at day 6; for ID50 CEM: CEM cells infected with HTLV-IIIb; for ID50 H9: H9 cells infected with HTLV-IIIb; for ID50 Jurkat: Jurkat cells infected with HTLV-IIIb; for ID50 MT-4: MT-4 cells infected with HTLV-IIIb; for ID50 U937: U937 cells infected with HTLV-IIIb. The method, then:
Determination of IC50 ([…]) in HIV-1 Acutely Infected Cell Lines in the Presence of Differet Antiviral Compounds
Various cell lines were infected with HTLV-IIIb (TCID50=200) and then cultured with various concentrations of drug. IC50 was determined by measuring p24 antigen levels in the supernatant of cultures at day 6 of infection.

The next data set concerns CBMCs. In words: Cell culture inhibitory dose (CCID50) in CBMCs. The following applies: cell counting, trypan blue exclusion, 7 days post drug treatment. The method, then:
(§1) Evaluation of Cell Culture Inhibitory Dose (CCID50)
(§2) Cell growth was determined by cell counting and viability by trypan blue exclusion 7 days post drug treatment. CCID50 is expressed as the drug concentration which inhibits 50% of cell growth.

In a further data set the test system is Jurkat. In words: Cell culture inhibitory dose (CCID50) in Jurkat. To be noted: cell counting, trypan blue exclusion, 7 days post drug treatment. On the procedure: as §1, §2
In a further data set the test system is CEM. In words: Cell culture inhibitory dose (CCID50) in CEM. The following applies: cell counting, trypan blue exclusion, 7 days post drug treatment. On the procedure:
as §1, §2

For a further data set, the system named is human hepatitis B virus. In words: Inhibition of human hepatitis B virus in 2.2.15 cells, extracellular HBV DNA. The following applies: 10 day treatment. The method, then: Inhibition of Human Hepatitis B Virus.
(§3) The method used for this test is described in detail in Korba et al., Antiviral research 15, 217-228 (1992) which is shortly described as follows: Hep G2 cells transfected with human hepatitis B virus genomic DNA (2.2.15 cells) were grown and maintained in RPMI-1640 culture medium containing %5 foetal bovine serum, 2 mM glutamine and 50 μg/ml gentamicin sulphate, and checked routinely for G418 resistance. Cultures of 2.2.15 cells were grown to confluence in 24 well tissue culture plates and maintained for 2 to 3 days in that condition prior to drug treatment.
Drugs were dissolved in sterile water or sterile 50% DMSO in water at concentrations 100-fold higher than the higher test concentration. These solutions were diluted as needed in culture medium.
The culture medium on the confluent cells was changed 24 hours prior to exposure to test compounds. During the 10 day treatment, the culture medium was changed daily. After 10 days of the treatment, the culture medium was collected and frozen at −70° C. for HBV DNA analysis. […]
A purified 3.2 kb EcoR1 HBV DNA fragment was labeled with [^32p]dCTP by nick translation and used as a probe to detect HBV DNA on the dot-blot by DNA hybridization. After washing, the hybridized blot was dried and ^32p was quantified using an Ambis beta scanner.

Data set [1] concerns 2.2.15 cells (Hep G2 cells transfected with human hepatitis B virus genomic DNA). In words: Cytotoxicity (CD50) reported with HBV assay. To be noted: HBV table. On the procedure: as §3

pIC50: −log10 of the molar value. In brackets after ≈: the same amount, converted by molar mass.

In the case of `Nc1ccn([C@@H]2CO[C@H](CO)S2)c(=O)n1` [Compound #2, 2S-hydroxymethyl-4S-(cytosin-1′-yl)-1,3-oxathiolane], the IC50 in the data set with HIV-1 strain RF was 4.4 µg/mL (≈ 19.2 µM). The CD50 in the data set on C8166 cells is over 100 µg/mL. In the data set with HIV-1 IIIB, this molecule gave a pIC50 of 6.55. Besides, in the data set with HTLV-IIIb, the “ID50 CEM” value is 0.4 µg/mL (≈ 1.74 µM), the “ID50 H9” value came out at 0.075 µg/mL (≈ 0.327 µM), the “ID50 Jurkat” value was found to be 1.8 µg/mL (≈ 7.85 µM) and the “ID50 MT-4” value amounted to 0.9 µg/mL (≈ 3.93 µM). In addition, the “ID50 U937” value in the data set with HTLV-IIIb worked out at 0.3 µg/mL (≈ 1.31 µM). Besides, in the data set with CBMCs, the “CCID50 CBMCs” value is 105 µM. Besides, in the data set on Jurkat, the “CCID50 Jurkat” value was 11 µM. Moreover, the “CCID50 CEM” value in the data set with CEM came out at 103 µM. The “ID50 (HBV)” value in the data set with human hepatitis B virus came to 4 µg/mL (≈ 17.4 µM). Also, in data set [1], the “CD50 (HBV)” value was over 10 µg/mL.
`Nc1nc(=O)n([C@H]2CO[C@@H](CO)S2)cc1F` [compound 3, 2R-hydroxymethyl-4R-(5′-fluorocytosin-1′-yl)-1,3-oxathiolane]: in the data set with HIV-1 strain RF, the IC50 was found to be 6 µg/mL (≈ 24.3 µM). In the data set on C8166 cells, this molecule showed a CD50 of over 100 µg/mL. Further, the pIC50 with HIV-1 IIIB is 6.08. In addition, in the data set on HTLV-IIIb, the “ID50 CEM” value is 0.2 µg/mL (≈ 0.809 µM), the “ID50 H9” value was determined as 0.1 µg/mL (≈ 0.404 µM), the “ID50 Jurkat” value came to 3.5 µg/mL (≈ 14.2 µM) and the “ID50 MT-4” value is 3.0 µg/mL (≈ 12.1 µM). Moreover, the “ID50 U937” value in the data set on HTLV-IIIb is 0.6 µg/mL (≈ 2.43 µM). Also, the “CCID50 CBMCs” value in the data set with CBMCs is over 500 µM. The “CCID50 Jurkat” value in the data set on Jurkat was over 500 µM. Also, the “CCID50 CEM” value with CEM was over 500 µM.
With `Nc1nc(=O)n([C@@H]2CO[C@H](CO)S2)cc1F` [compound 4, 2S-hydroxymethyl-4S-(5′-fluorocytosin-1′-yl)-1,3-oxathiolane], in the data set with HIV-1 strain RF, the IC50 is 2.9 µg/mL (≈ 11.7 µM). Besides, in the data set with C8166 cells, the CD50 was over 100 µg/mL. Besides, the pIC50 in the data set with HIV-1 IIIB was 6.47. Also, in the data set on HTLV-IIIb, the “ID50 CEM” value amounted to 0.3 µg/mL (≈ 1.21 µM), the “ID50 H9” value came to 1.0 µg/mL (≈ 4.04 µM), the “ID50 Jurkat” value is 6.0 µg/mL (≈ 24.3 µM) and the “ID50 MT-4” value was 3.2 µg/mL (≈ 12.9 µM). Besides, in the data set with HTLV-IIIb, the “ID50 U937” value worked out at 0.4 µg/mL (≈ 1.62 µM). Moreover, the “CCID50 CBMCs” value in the data set on CBMCs is over 500 µM. Besides, the “CCID50 Jurkat” value with Jurkat is over 500 µM. Moreover, in the data set on CEM, the “CCID50 CEM” value was over 500 µM.
